Bridge positions count the residues as written; N and C are the ends. Square brackets hold non-standard residues; d marks the D form. Peptide text beside a SMILES is read from it. * marks the point of attachment. Ala(morpholin-4-yl) = N[C@@H](CN1CCOCC1)C(=O)O; Phe(4-COOH) = N[C@@H](Cc1ccc(C(=O)O)cc1)C(=O)O; Bip = N[C@@H](Cc1ccc(-c2ccccc2)cc1)C(=O)O; Phe(4-CN) = N#Cc1ccc(C[C@H](N)C(=O)O)cc1; Phe(3-Me) = Cc1cccc(C[C@H](N)C(=O)O)c1; Abu(3S-NH2) = C[C@H](N)[C@H](N)C(=O)O; Val(3-OH) = CC(C)(O)[C@H](N)C(=O)O; hArg = N=C(N)NCCCC[C@H](N)C(=O)O; Cha = N[C@@H](CC1CCCCC1)C(=O)O; dDab = NCC[C@@H](N)C(=O)O; Carboxymethyl = O=C(O)C*; Orn = NCCC[C@H](N)C(=O)O; Aun = NCCCCCCCCCCC(=O)O; Dab = NCC[C@H](N)C(=O)O; AEEA = NCCOCCOCC(=O)O
Molecular target: T1, PD-1/PD-L1 interaction (PE-labeled human PD-L1-Ig binding to Jurkat cell line over-expressing human PD-1) (Homo sapiens, UniProt Q15116)
T1 construct: expressed in transfected cells; host or cells: Jurkat
T1 sequence (Q15116 25-288): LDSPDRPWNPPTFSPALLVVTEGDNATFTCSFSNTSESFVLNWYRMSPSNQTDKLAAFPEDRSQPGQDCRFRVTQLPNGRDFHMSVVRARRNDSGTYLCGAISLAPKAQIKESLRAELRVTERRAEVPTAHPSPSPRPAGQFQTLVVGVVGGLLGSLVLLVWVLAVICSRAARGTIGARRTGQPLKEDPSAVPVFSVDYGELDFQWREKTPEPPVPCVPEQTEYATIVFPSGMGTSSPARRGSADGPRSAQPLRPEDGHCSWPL
Experiment: Jurkat-PD-1 Cell Binding High-Content Screening Assay (CBA)
Assay type: cell-based
Settings: Jurkat cell line over-expressing human PD-1; PE-labeled PD-L1-Ig 20 nM final; read-out: Jurkat hPD1-PDL1 IC50
Procedure, shortened: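 Jurkat cells over-expressing human PD-1 (8×10^3 per well, DMEM/10% FCS) preincubated with compound 2 h at 37° C, then PE-labeled human PD-L1-Ig (20 nM final) added for 1 h. Cells fixed with paraformaldehyde, Hoechst-stained, and bound fluorescence quantified by high-content imaging.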

SMILES | IC50
Cc1cccc(C[C@@H]2NC(=O)[C@H](CC(=O)O)NC(=O)[C@H](Cc3ccc(OCC(=O)O)cc3)NC(=O)[C@H](CCCCNC(=N)N)NC(=O)CSC[C@@H](C(=O)N[C@@H](CCN)C(=O)NCCCCCCCCCCC(=O)O)NC(=O)[C@H](CO)NC(=O)[C@H](C(C)(C)O)NC(=O)[C@H](CC3CCCCC3)NC(=O)[C@H](CCN)NC(=O)[C@@H](CC(C)C)NC(=O)[C@H](CCCN)NC(=O)[C@H](Cc3ccc(OCC(=O)O)cc3)NC(=O)[C@H](Cc3ccc(-c4ccccc4)cc3)NC(=O)[C@H](Cc3ccc(OCC(=O)O)cc3)NC2=O)c1 [Compound 2234] ({CH2CO}-[hArg]Y(Carboxymethyl)D[Phe(3-Me)]Y(Carboxymethyl)[Bip]Y(Carboxymethyl)[Orn][dL][Dab][Cha][Val(3-OH)]SC[Dab][Aun]-OH; thioether N-14) | 2.6 nM
Cc1cccc(C[C@@H]2NC(=O)[C@H](CC(=O)O)NC(=O)[C@H](Cc3ccc(OCC(=O)O)cc3)NC(=O)[C@H](CN3CCOCC3)NC(=O)CSC[C@@H](C(=O)N[C@@H](CCN)C(=O)NCCCCCCCCCCC(=O)O)NC(=O)[C@H](CO)NC(=O)[C@H](C(C)(C)O)NC(=O)[C@H](CC3CCCCC3)NC(=O)[C@H](CCN)NC(=O)[C@@H](CC(C)C)NC(=O)[C@H](CCCN)NC(=O)[C@H](Cc3ccc(OCC(=O)O)cc3)NC(=O)[C@H](Cc3ccc(-c4ccccc4)cc3)NC(=O)[C@H](Cc3ccc(OCC(=O)O)cc3)NC2=O)c1 [Compound 2235] ({CH2CO}-[Ala(morpholin-4-yl)]Y(Carboxymethyl)D[Phe(3-Me)]Y(Carboxymethyl)[Bip]Y(Carboxymethyl)[Orn][dL][Dab][Cha][Val(3-OH)]SC[Dab][Aun]-OH; thioether N-14) | 0.9 nM
Cc1cccc(C[C@@H]2NC(=O)[C@H](CC(=O)O)NC(=O)[C@H](Cc3ccc(OCC(=O)O)cc3)NC(=O)[C@@H](CCN)NC(=O)CSC[C@@H](C(=O)N[C@@H](CCN)C(=O)NCCCCCCCCCCC(=O)O)NC(=O)[C@H](CO)NC(=O)[C@H](C(C)(C)O)NC(=O)[C@H](CC3CCCCC3)NC(=O)[C@H](CCN)NC(=O)[C@@H](CC(C)C)NC(=O)[C@H](CCCN)NC(=O)[C@H](Cc3ccc(OCC(=O)O)cc3)NC(=O)[C@H](Cc3ccc(-c4ccccc4)cc3)NC(=O)[C@H](Cc3ccc(OCC(=O)O)cc3)NC2=O)c1 [Compound 2236] ({CH2CO}-[dDab]Y(Carboxymethyl)D[Phe(3-Me)]Y(Carboxymethyl)[Bip]Y(Carboxymethyl)[Orn][dL][Dab][Cha][Val(3-OH)]SC[Dab][Aun]-OH; thioether N-14) | 185 nM
Cc1cccc(C[C@@H]2NC(=O)[C@H](CC(=O)O)NC(=O)[C@H](Cc3ccc(OCC(=O)O)cc3)NC(=O)[C@H]([C@H](C)N)NC(=O)CSC[C@@H](C(=O)N[C@@H](CCN)C(=O)NCCCCCCCCCCC(=O)O)NC(=O)[C@H](CO)NC(=O)[C@H](C(C)(C)O)NC(=O)[C@H](CC3CCCCC3)NC(=O)[C@H](CCN)NC(=O)[C@@H](CC(C)C)NC(=O)[C@H](CCCN)NC(=O)[C@H](Cc3ccc(OCC(=O)O)cc3)NC(=O)[C@H](Cc3ccc(-c4ccccc4)cc3)NC(=O)[C@H](Cc3ccc(OCC(=O)O)cc3)NC2=O)c1 [Compound 2237] ({CH2CO}-[Abu(3S-NH2)]Y(Carboxymethyl)D[Phe(3-Me)]Y(Carboxymethyl)[Bip]Y(Carboxymethyl)[Orn][dL][Dab][Cha][Val(3-OH)]SC[Dab][Aun]-OH; thioether N-14) | 2.6 nM
Cc1cccc(C[C@@H]2NC(=O)[C@H](CC(=O)O)NC(=O)[C@H](Cc3ccc(OCC(=O)O)cc3)NC(=O)[C@H](CCCCN)NC(=O)CSC[C@@H](C(=O)N[C@@H](CCN)C(=O)NCCCCCCCCCCC(=O)O)NC(=O)[C@H](CO)NC(=O)[C@H](C(C)(C)O)NC(=O)[C@H](CC3CCCCC3)NC(=O)[C@H](CCN)NC(=O)[C@@H](CC(C)C)NC(=O)[C@H](CCCN)NC(=O)[C@H](Cc3ccc(OCC(=O)O)cc3)NC(=O)[C@H](Cc3ccc(-c4ccccc4)cc3)NC(=O)[C@H](Cc3ccc(OCC(=O)O)cc3)NC2=O)c1 [Compound 2238] ({CH2CO}-KY(Carboxymethyl)D[Phe(3-Me)]Y(Carboxymethyl)[Bip]Y(Carboxymethyl)[Orn][dL][Dab][Cha][Val(3-OH)]SC[Dab][Aun]-OH; thioether N-14) | 11.2 nM
COC[C@@H]1NC(=O)CSC[C@@H](C(=O)N[C@@H](CCN)C(=O)NCCOCCOCC(=O)NCCCCCCCCCCC(=O)O)NC(=O)[C@H](CO)NC(=O)[C@H](C(C)(C)O)NC(=O)[C@H](CC2CCCCC2)NC(=O)[C@H](CCN)NC(=O)[C@@H](CC(C)C)NC(=O)[C@H](CCCN)NC(=O)[C@H](Cc2ccc(OCC(=O)O)cc2)NC(=O)[C@H](Cc2ccc(-c3ccccc3)cc2)NC(=O)[C@H](Cc2ccc(OCC(=O)O)cc2)NC(=O)[C@H](Cc2cccc(C)c2)NC(=O)[C@H](CC(=O)O)NC(=O)[C@H](Cc2ccc(C(=O)O)cc2)NC1=O [Compound 2241] ({CH2CO}-S(Me)[Phe(4-COOH)]D[Phe(3-Me)]Y(Carboxymethyl)[Bip]Y(Carboxymethyl)[Orn][dL][Dab][Cha][Val(3-OH)]SC[Dab][AEEA][Aun]-OH; thioether N-14) | 3.7 nM
Cc1cccc(C[C@@H]2NC(=O)[C@H](CC(=O)O)NC(=O)[C@H](Cc3ccc(O)cc3)NC(=O)[C@H]([C@@H](C)O)NC(=O)CSC[C@@H](C(=O)N[C@@H](CCN)C(=O)NCCOCCOCC(=O)NCCCCCCCCCCC(=O)O)NC(=O)[C@H](CO)NC(=O)[C@H](C(C)(C)O)NC(=O)[C@H](CC3CCCCC3)NC(=O)[C@H](CCN)NC(=O)[C@@H](CC(C)C)NC(=O)[C@H](CCCN)NC(=O)[C@H](Cc3ccc(OCC(=O)O)cc3)NC(=O)[C@H](Cc3ccc(-c4ccccc4)cc3)NC(=O)[C@H](Cc3ccc(OCC(=O)O)cc3)NC2=O)c1 [Compound 2245] ({CH2CO}-TYD[Phe(3-Me)]Y(Carboxymethyl)[Bip]Y(Carboxymethyl)[Orn][dL][Dab][Cha][Val(3-OH)]SC[Dab][AEEA][Aun]-OH; thioether N-14) | 1.2 nM

The next lines start with the values.

IC50 | SMILES
1.6 nM | COC[C@@H]1NC(=O)CSC[C@@H](C(=O)N[C@@H](CCN)C(=O)NCCOCCOCC(=O)NCCCCCCCCCCC(=O)O)NC(=O)[C@H](CO)NC(=O)[C@H](C(C)(C)O)NC(=O)[C@H](CC2CCCCC2)NC(=O)[C@H](CCN)NC(=O)[C@@H](CC(C)C)NC(=O)[C@H](CCCN)NC(=O)[C@H](Cc2ccc(OCC(=O)O)cc2)NC(=O)[C@H](Cc2ccc(-c3ccccc3)cc2)NC(=O)[C@H](Cc2ccc(OCC(=O)O)cc2)NC(=O)[C@H](Cc2cccc(C)c2)NC(=O)[C@H](CC(=O)O)NC(=O)[C@H](Cc2ccc(OCC(=O)O)cc2)NC1=O [Compound 2239] ({CH2CO}-S(Me)Y(Carboxymethyl)D[Phe(3-Me)]Y(Carboxymethyl)[Bip]Y(Carboxymethyl)[Orn][dL][Dab][Cha][Val(3-OH)]SC[Dab][AEEA][Aun]-OH; thioether N-14)
7.3 nM | Cc1cccc(C[C@@H]2NC(=O)[C@H](CC(=O)O)NC(=O)[C@H](Cc3ccc(OCC(=O)O)cc3)NC(=O)[C@H](Cc3ccc(C#N)cc3)NC(=O)CSC[C@@H](C(=O)N[C@@H](CCN)C(=O)NCCOCCOCC(=O)NCCCCCCCCCCC(=O)O)NC(=O)[C@H](CO)NC(=O)[C@H](C(C)(C)O)NC(=O)[C@H](CC3CCCCC3)NC(=O)[C@H](CCN)NC(=O)[C@@H](CC(C)C)NC(=O)[C@H](CCCN)NC(=O)[C@H](Cc3ccc(OCC(=O)O)cc3)NC(=O)[C@H](Cc3ccc(-c4ccccc4)cc3)NC(=O)[C@H](Cc3ccc(OCC(=O)O)cc3)NC2=O)c1 [Compound 2240] ({CH2CO}-[Phe(4-CN)]Y(Carboxymethyl)D[Phe(3-Me)]Y(Carboxymethyl)[Bip]Y(Carboxymethyl)[Orn][dL][Dab][Cha][Val(3-OH)]SC[Dab][AEEA][Aun]-OH; thioether N-14)
4 nM | Cc1cccc(C[C@@H]2NC(=O)[C@H](CC(=O)O)NC(=O)[C@H](Cc3ccc(C(=O)O)cc3)NC(=O)[C@H](Cc3ccc(C#N)cc3)NC(=O)CSC[C@@H](C(=O)N[C@@H](CCN)C(=O)NCCOCCOCC(=O)NCCCCCCCCCCC(=O)O)NC(=O)[C@H](CO)NC(=O)[C@H](C(C)(C)O)NC(=O)[C@H](CC3CCCCC3)NC(=O)[C@H](CCN)NC(=O)[C@@H](CC(C)C)NC(=O)[C@H](CCCN)NC(=O)[C@H](Cc3ccc(OCC(=O)O)cc3)NC(=O)[C@H](Cc3ccc(-c4ccccc4)cc3)NC(=O)[C@H](Cc3ccc(OCC(=O)O)cc3)NC2=O)c1 [Compound 2242] ({CH2CO}-[Phe(4-CN)][Phe(4-COOH)]D[Phe(3-Me)]Y(Carboxymethyl)[Bip]Y(Carboxymethyl)[Orn][dL][Dab][Cha][Val(3-OH)]SC[Dab][AEEA][Aun]-OH; thioether N-14)
1.7 nM | Cc1cccc(C[C@@H]2NC(=O)[C@H](CC(=O)O)NC(=O)[C@H](Cc3ccc(OCC(=O)O)cc3)NC(=O)[C@H]([C@@H](C)O)NC(=O)CSC[C@@H](C(=O)N[C@@H](CCN)C(=O)NCCOCCOCC(=O)NCCCCCCCCCCC(=O)O)NC(=O)[C@H](CO)NC(=O)[C@H](C(C)(C)O)NC(=O)[C@H](CC3CCCCC3)NC(=O)[C@H](CCN)NC(=O)[C@@H](CC(C)C)NC(=O)[C@H](CCCN)NC(=O)[C@H](Cc3ccc(OCC(=O)O)cc3)NC(=O)[C@H](Cc3ccc(-c4ccccc4)cc3)NC(=O)[C@H](Cc3ccc(OCC(=O)O)cc3)NC2=O)c1 [Compound 2243] ({CH2CO}-TY(Carboxymethyl)D[Phe(3-Me)]Y(Carboxymethyl)[Bip]Y(Carboxymethyl)[Orn][dL][Dab][Cha][Val(3-OH)]SC[Dab][AEEA][Aun]-OH; thioether N-14)
0.6 nM | Cc1cccc(C[C@@H]2NC(=O)[C@H](CC(=O)O)NC(=O)[C@H](Cc3ccc(OCC(=O)O)cc3)NC(=O)[C@H](CCCNC(=N)N)NC(=O)CSC[C@@H](C(=O)N[C@@H](CCN)C(=O)NCCOCCOCC(=O)NCCCCCCCCCCC(=O)O)NC(=O)[C@H](CO)NC(=O)[C@H](C(C)(C)O)NC(=O)[C@H](CC3CCCCC3)NC(=O)[C@H](CCN)NC(=O)[C@@H](CC(C)C)NC(=O)[C@H](CCCN)NC(=O)[C@H](Cc3ccc(OCC(=O)O)cc3)NC(=O)[C@H](Cc3ccc(-c4ccccc4)cc3)NC(=O)[C@H](Cc3ccc(OCC(=O)O)cc3)NC2=O)c1 [Compound 2244] ({CH2CO}-RY(Carboxymethyl)D[Phe(3-Me)]Y(Carboxymethyl)[Bip]Y(Carboxymethyl)[Orn][dL][Dab][Cha][Val(3-OH)]SC[Dab][AEEA][Aun]-OH; thioether N-14)

Source: US20260022142A1, “MACROCYCLIC IMMUNOMODULATORS” (Bristol-Myers Squibb Company, priority 2022, published 2026)
